We go through four molecules from patent US20180312493A1, “Antibiotic Compounds, Pharmaceutical Formulations Thereof And Methods And Uses Therefor” (Simon Fraser University, priority 2015, published 2018).

Usually MIC stands for the least concentration at which growth counts as inhibited.

For experiment [1], the system named is P. aeruginosa (PA01). Nature of the experiment: In vitro susceptibility, broth microdilution (MIC). It counts as cell-based. As to conditions: Pseudomonas aeruginosa, read-out: Antimicrobial activity (MIC) P. aeruginosa. The method, boiled down:
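MIC determined by CLSI 2-fold broth microdilution in cation-adjusted Mueller–Hinton broth at ~2.5×10^5 CFU/ml, final compound 0.031–64 μg/ml, 18–24 h at 37 °C. MIC is the lowest concentration giving complete growth inhibition by background-corrected OD600 versus compound-free wells; duplicate or triplicate wells, replicated at least twice.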

The test system of experiment [2] is S. aureus ATCC 29123. Nature of the experiment: Thigh infection model in neutropenic mice. In kind it is in vivo, female CD-1 mice. The following applies: thigh muscle, 10 mg/kg IV BID (2 and 8 h post-infection), 24 hr post infection. As to the method: The antimicrobial activity of compounds 23 and 60 against S. aureus ATCC 29123 was tested in vivo using a thigh infection model in neutropenic mice. Briefly, animals (female CD-1 mice, 5 weeks of age) were made neutropenic prior to S. aureus thigh infection by pre-treating with cyclophosphamide (150 mg/kg, IP, −4 and −1 days pre-inoculation). On the inoculation day (day 0), mice were infected with S. aureus at time zero (t=0). Animals were individually monitored for adverse reactions for 30 min post-infection.
Compounds 23 and 60 were prepared for IV administration and for oral administration. Vancomycin was administered as a solution in PBS. The test compounds were administered at 2 and 8 hours post-infection and animals were individually monitored for adverse reactions for 30 min after each injection. All animals were then monitored hourly from 20 hours post infection to the endpoint (t=24 hr post infection). At the indicated timepoint, animals were sacrificed and the injected thigh collected.
Quantitative enumeration of bacterial load was determined by plating serial dilutions from homogenized thigh muscles. The plates were incubated and colony counts were determined. CFU per mL calculated was calculated.

Values after ≈ are worked out from the molar mass of the structure shown.

Regarding `C[N+](C)(C)CCON=C(c1c(-c2cc3cc(Cl)ccc3[nH]2)[nH]c2cc(Br)ccc12)C(F)(F)F` (racemic) [Compound 221, 2-(((1-(6-Bromo-5′-chloro-1H,1′H-[2,2′-biindol]-3-yl)-2,2,2-trifluoroethylidene)amino)oxy)-N,N,N-trimethylethan-1-aminium Iodide], the MIC in experiment [1] is 32 µg/mL.
With `CN(C)CCOC(=O)c1c(/C=C/c2ccc(Cl)cc2)[nH]c2cc(Br)ccc12` [Compound 60, (E)-2-(Dimethylamino)ethyl 6-bromo-2-(4-chlorostyryl)-1H-indole-3-carboxylate], the “reduction in CFU” value in experiment [2] stood at 3 log.
For the molecule `NCCOc1cc2[nH]c(-c3cc4ccc(Br)cc4[nH]3)cc2cc1Cl` [Compound 201, 2-((6′-Bromo-5-chloro-1H,1′H-[2,2′-biindol]-6-yl)oxy)ethan-1-amine], the MIC in experiment [1] amounted to 16 µg/mL (≈ 39.5 µM).
With `NCCNC(=O)c1c(-c2cc3cc(Cl)ccc3[nH]2)[nH]c2cc(Br)ccc12` [Compound 206, N-(2-Aminoethyl)-6-bromo-5′-chloro-1H,1′H-[2,2′-biindole]-3-carboxamide], the minimum inhibitory concentration (MIC) in experiment [1] came out at 32 µg/mL (≈ 74.1 µM).
